Structures can show the parent of a compound that is named as a salt.
How the values were obtained:
Type in all cases: physicochemical
[1] = Equilibrium solubility in various media (shaker water bath, HPLC analysis); conditions: for Solubility (mg/ml) ± SD: 24 hrs
Method: Equilibrium solubility of compound of formula (I) free base and compound of formula (I) fumarate were measured in various medium. Excess quantities of compound of formula (I) and compound of formula (I) fumarate were added to glass vials containing different medium. These vials were kept for shaking in shaker water bath at appropriate temperature (25° C. for water and 37° C. for buffers) at 200 rpm. The obtained preparations were filtered and analysed by means of HPLC.

[2] = Variable humidity X-ray diffraction (VH-XRD) physical stability; conditions: 40% RH to 85% RH sorption then desorption to 40% RH, 1 hr at each RH level
Method: An Anton Paar TTK 450 stage was used to collect in situ XRPD patterns as a function of temperature. The sample was heated with a resistance heater located directly under the sample holder, and the temperature was monitored with a platinum-100 resistance sensor located in the specimen holder. The heater was powered and controlled by an Anton Paar TCU 100 interfaced with Data Collector. Approximately 200 mg sample used for VH-XRD analysis.
The compound of present invention was exposed to various humidity conditions. The sample, i.e., compound of formula (I) fumarate, was exposed from 40% RH to 85% RH followed by desorption cycle from 85% to 40% RH. The samples were equilibrated for 1 hr at each RH level (both sorption and desorption). […] See, FIG. 6B.

[3] = Dynamic vapor sorption (DVS) moisture uptake study; conditions: at 90% RH, 25° C.
Method: The moisture uptake study of compound of present invention was performed with a DVS instrument (Q5000SA, TA instruments, New Castle, Delaware, USA) at 25° C. to evaluate the physical stability of compound of present invention against moisture or tendency to adsorb moisture. The instrument consisted of a microbalance housed inside a temperature-controlled chamber. The humidity was controlled via switching valves, which control the flow of a dry gas (nitrogen) through a humidification stage. Instrument was programmed for moisture sorption from 40 to 90% RH in 10% RH steps at 25±0.1° C. using an equilibrium condition. The equilibrium condition was set to <0.01% total mass change within 10 min and with a maximum dwell time of 60 min followed by desorption from 90% RH to 10% RH steps. The equilibrium condition for desorption was set to <0.01% total mass change within 10 min and with a maximum dwell time of 60 min.

[4] = 6-month storage stability of solid form (XRPD, particle morphology); conditions: 6 months
[5] = Variable temperature X-ray diffraction (VT-XRD) physical stability; conditions: 25° C., 40° C. and 60° C.; isothermal hold of 60 min
Text: An Anton Paar temperature-humidity chamber (THC) was used to collect in situ XRPD patterns as a function of humidity. The humidity was generated with an RH-200 manufactured by VTI Inc. and carried by a flow of nitrogen gas. The humidity and temperature was monitored by a HygroClip sensor manufactured by Rotronic located next to the specimen inside the THC. XRPD patterns were collected with a PANalytical X'Pert PRO MPD diffractometer in symmetric Bragg-Brentano reflection geometry. Isothermal hold of 60 min given at specified temperature. Heating rate was kept at 10° C./min. Approximately 200 mg sample used for VT-XRD analysis. Cu Kα radiation was produced using a long, fine-focus source operated at 45 kV and 40 mA. The incident beam was conditioned using a nickel filter, a 0.02-rad Soller slit, a 11.6-mm fixed incident beam mask, a fixed 0.76-mm ½° antiscatter slit, and a fixed 0.38-mm ¼° divergence slit. The diffracted beam was conditioned using a 5-mm antiscatter slit, a 0.04-rad Soller slit. The diffraction patterns were collected using a scanning position-sensitive detector (X'Celerator) located 240 mm from the sample. Data were collected and analyzed using Data Collector software v. 5.5.
VT-XRD analysis confirmed that compound of formula (I)-fumaric acid cocrystal remained stable and no solid form transformation/phase change occurred even at higher temperature conditions. […]

[6] = pH 4.5 Acetate buffer USP, 37° C.
[7] = pH 5.8 Phosphate buffer USP, 37° C.
[8] = pH 6.8 Phosphate buffer USP, 37° C.

Structure (SMILES) | Solubility (mg/ml) ± SD ([1]; Purified water, 25° C.) [mg/mL] | solubility at 24 h ([1]; pH 2.8 acid phthalate buffer USP, 37 °C, pH 2.8, aqueous buffer, thermodynamic from solid, pH 2.8 Acid Phthalate buffer USP, 37° C., read-out: Solubility (mg/ml) ± SD) [mg/mL] | Solubility (mg/ml) ± SD [1, 6] [mg/mL] | Solubility (mg/ml) ± SD [1, 7] [mg/mL] | Solubility (mg/ml) ± SD [1, 8] [mg/mL] | physical stability at different relative humidity conditions (VH-XRD) [2] | weight/moisture gained (DVS) [3] | Solubility (mg/ml) ± SD ([1]; pH 2.8 Acid Phthalate buffer USP, 37° C.) [mg/mL] | solid form and particle morphology after storage ([4]; 25° C./60% RH) | solid form and particle morphology after storage ([4]; 40° C./75% RH) | physical stability at different temperature conditions (VT-XRD) [5]
CC(C)[C@H](C(=O)Nc1cc(C2CC2)[nH]n1)c1cccc(-c2ccc(NC(=O)/C=C/CN3CCOCC3)nc2)c1 [Formula (I) free base, (S, E)-N-(5-(3-(1-((5-cyclopropyl-1H-pyrazol-3-yl)amino)-3-methyl-1-oxobutan-2-yl)phenyl)pyridin-2-yl)-4-morpholinobut-2-enamide] | 0.0013 ± 0.0001 | 0.065 ± 0.004 | 0.07 ± 0.004 | 0.002 ± 0.0001 | 0.0005 ± 0.0002 | – | – | – | – | – | –
CC(C)[C@H](C(=O)Nc1cc(C2CC2)[nH]n1)c1cccc(-c2ccc(NC(=O)/C=C/CN3CCOCC3)nc2)c1 [Formula (I) fumarate] | 0.280 ± 0.004 | – | 0.171 ± 0.001 | 0.014 ± 0.004 | 0.014 ± 0.009 | remained physically stable | About 0.646 % w/w | 0.114 ± 0.017 | remained unchanged | remained unchanged | physically stable

From US20240059669A1, “COCRYSTAL OF A CDK INHIBITOR” (AURIGENE ONCOLOGY LIMITED, priority 2020, published 2024)
